These results are taken from article PMC6268773, “Aminodi(hetero)arylamines in the Thieno[3,2-b]pyridine Series: Synthesis, Effects in Human Tumor Cells Growth, Cell Cycle Analysis, Apoptosis and Evaluation of Toxicity Using Non-Tumor Cells” (Molecules, 2012).

Data set [1] in a line: SRB toxicity assay in non-tumor porcine liver primary cells. The data set is classed as cell-based. To be noted: pig, porcine liver primary cell culture (PLP1), non-tumor, PLP1 non-tumor porcine liver cells, 48h continuous treatment, SRB, mean ± SD, n = 3. On the procedure: (§1) The effects of the aminodi(hetero)arylamines in the growth of four human tumour cell lines (MCF-7, A375-C5, NCI-H460 and HepG2) were evaluated using the SRB assay. Doxorubicin and ellipticine were used as positive controls. Furthermore, to investigate the possible toxicity of the compounds, the in vitro cell growth inhibition assay (SRB) was also performed using porcine liver non-tumor cells (PLP1) established by us.
(§2) Porcine liver primary cell culture (PLP1) was prepared from freshly harvested porcine liver, obtained from a local slaughter house. Briefly, the liver tissue was rinsed in HBSS solution containing 100 U/mL penicillin, 100 µg/mL streptomycin and divided into 1 × 1 mm^3 explants. Some of these explants were placed in 25 cm^2 tissue flasks in DMEM medium supplemented with 10% FBS, 2 mM nonessential amino acids, 100 U/mL penicillin and […] streptomycin. This cell culture was maintained according to the procedure described previously by us.
(§3) The effects of the compounds on the in vitro growth of human tumor cell lines and non-tumor porcine liver primary cells were evaluated according to the procedure adopted by the NCI (USA) in their “In vitro Anticancer Drug Discovery Screen”, using the SRB assay to assess cell growth.
(§4) For the cell lines, exponentially growing cells were obtained by plating 1.5 × 10^5 cells/mL for MCF-7, 0.75 × 10^5 cells/mL for A375-C5 and NCI-H460, and 5.0 × 10^5 cells/mL for HepG2, followed by 24 h of incubation. For the primary porcine liver cells, cells were incubated in 96-well plates at a density of 5.0 × 10^5 cells/mL, and cultivated in DMEM medium with 10% FBS, 100 U/mL penicillin and […] streptomycin.
(§5) Following a 24 h period to allow cells to adhere, cells were treated for 48 h with six serial dilutions of each test compound, starting from a maximum concentration of 125 µM. Following the 48 h treatment period, adherent cells were fixed in situ, washed and stained with SRB. The bound stain was solubilized and the absorbance was measured at 492 nm in the case of MCF-7, NCI-H460 and A375-C5 cells and at 515 nm in the case od HepG2 and PLP1 primary cells, in a plate reader (Biotek Instruments Inc., Powerwave XS, Bedfordshire, UK). Dose response curves were obtained and the concentration of the diarylamine that inhibited 50% of the net cell growth (GI50) was calculated as described elsewhere. Doxorubicin and ellipticine were used as positive controls of cell growth inhibition.
Background: The SRB assay estimates cell density from bound dye.

In data set [2] the test system is porcine liver primary cell culture (PLP1). The description is as above. The data set is classed as cell-based. On the procedure:
as §1, §2, §3, §4, §5

Data set [3] has as its system MCF-7 (breast adenocarcinoma). The experiment in a line: SRB cell growth inhibition assay, MCF-7. The data set is classed as cell-based. To be noted: Homo sapiens, MCF7, MCF-7, 48h continuous treatment, mean ± SD, n = 3. The method, then:
as §1
(§6) Four human tumor cell lines, MCF-7 (breast adenocarcinoma), A375-C5 (melanoma), NCI-H460 (non-small cell lung cancer) and HepG2 (hepatocellular carcinoma) were used. MCF-7, A375-C5 and HepG2 were obtained from the European Collection of Cell Cultures (ECACC, Salisbury, UK) and NCI-H460 was kindly provided by the National Cancer Institute (NCI, Bethesda, MD, USA). Cells were routinely maintained as adherent cell cultures in RPMI-1640 medium supplemented with 5% FBS (MCF-7, NCI-H460 and A375-C5 cells) or in DMEM supplemented with 10% FBS, 2 mM glutamine, 100 U/mL penicillin and […] streptomycin (HepG2 cells), at 37 °C in a humidified atmosphere containing 5% CO2.
as §3, §4, §5

In data set [4] the test system is NCI-H460 cells. As to the kind of experiment: Cell cycle distribution profile by flow cytometry (propidium iodide). The format is cell-based, human. To be noted: NCI-H460, compound at GI50 concentration (1.4 μM), 48 h. The method, then: NCI-H460 cells were plated in 6-well plates at a final density of 1.5 × 10^5 cells/well and incubated at 37 °C for 24 h. […] As controls, cells were also incubated with medium only (blank) and with the compound’s vehicle (DMSO). Following 48 h of treatment, cells were fixed overnight in ice-cold 70% ethanol and re-suspended in PBS containing 0.1 mg/mL RNase A and 5 µg/mL propidium iodide. Cellular DNA content was analysed by flow cytometry using an Epics XL-MCL Coulter Flow cytometer (Brea, CA, USA) plotting at least 20,000 events per sample, as previously described. The analysis of cell cycle distribution was subsequently performed using the FlowJo 7.2 software (Tree Star, Inc., Ashland, USA) after cell debris and aggregates exclusion.
(In general: Flow cytometry measures light scatter and fluorescence of single cells or particles in a stream.)

The subject of data set [5] is NCI-H460 (non-small cell lung cancer). As to the kind of experiment: SRB cell growth inhibition assay, NCI-H460. The data set is classed as cell-based. As to conditions: Homo sapiens, NCI-H460, 48h continuous treatment, mean ± SD, n = 3. The method, then:
as §1, §6, §3, §4, §5

The test system of a further data set is A375-C5 (melanoma). As to the kind of experiment: SRB cell growth inhibition assay, A375-C5. To be noted: Homo sapiens, A375-C5, 48h continuous treatment, mean ± SD, n = 3. The data set is classed as cell-based. On the procedure:
as §1, §6, §3, §4, §5

For data set [6], the system named is HepG2 (hepatocellular carcinoma). As to the kind of experiment: SRB cell growth inhibition assay, HepG2. The data set is classed as cell-based. To be noted: Homo sapiens, HepG2, 48h continuous treatment, mean ± SD, n = 3. The method, then: as §1, §6, §3, §4, §5
Data set [7] has as its system human tumor cell lines MCF-7, A375-C5, NCI-H460 and HepG2. As to the kind of experiment: SRB cell growth inhibition, all tested human tumor cell lines (summary). The format is cell-based. As to conditions: span over MCF-7, A375-C5, NCI-H460, HepG2, 48 h. The method, then: as §1, §3
For the cell lines, exponentially growing cells were obtained by plating 1.5 × 10^5 cells/mL for MCF-7, 0.75 × 10^5 cells/mL for A375-C5 and NCI-H460, and 5.0 × 10^5 cells/mL for HepG2, followed by 24 h of incubation. […]
Following a 24 h period to allow cells to adhere, cells were treated for 48 h with six serial dilutions of each test compound, starting from a maximum concentration of 125 µM. […] The bound stain was solubilized and the absorbance was measured at 492 nm in the case of MCF-7, NCI-H460 and A375-C5 cells and at 515 nm in the case od HepG2 and PLP1 primary cells, in a plate reader (Biotek Instruments Inc., Powerwave XS, Bedfordshire, UK). […]

Data set [8] concerns NCI-H460 cells. The experiment in a line: Apoptosis by flow cytometry (Annexin V-FITC/PI). The data set is classed as cell-based, human. To be noted: NCI-H460, compound at GI50 concentration (1.4 μM), 48 h, Annexin V/Propidium iodide. The method, then:
Following 48 h treatment of NCI-H460 cells with compound 3c, as described above, the levels of apoptosis were analysed by flow cytometry using the Human Annexin V-FITC/PI apoptosis kit (Bender MedSystems, Vienna, Austria), according to the manufacturer’s instructions. Flow cytometry was carried out using an Epics XL-MCL Coulter flow cytometer plotting at least 20,000 events per sample, as previously described. The data was analysed using the FlowJo 7.2 software (Tree Star, Inc.).

`COC(=O)c1sc2cccnc2c1Nc1ccc(OC)cc1N` [3c, Methyl 3-(2-amino-4-methoxhyphenylamino)thieno[3,2-b]pyridine-2-carboxylate]: the melting point (commonly the temperature, or range, at which the solid turns liquid) lay in the range of 172 to 174 °C. Moreover, in data set [1], growth was halved (GI50 at 48 h) at 12.5 µM. Further, the “toxicity to non-tumor cells (in words)” value in [2] (PLP1, at the GI50 concentrations found in tumor cell lines / versus ellipticine) is “did not show toxicity”. Also, in data set [3], the GI50 (in general, the concentration giving 50% growth inhibition) is 1.4 ± 0.2 µM. Also, the “percentage of cells in the G0/G1 phase of the cell cycle (in words)” value in the data set with NCI-H460 cells [4] is “significant decrease”. The “% of cells in the sub-G1 peak (in words)” value in the data set with NCI-H460 cells [4] (data not shown) was “significantly increased”. Moreover, in data set [5], the GI50 was 1.4 ± 0.4 µM. In the data set on A375-C5 (melanoma), this compound registered a GI50 of 1.3 ± 0.1 µM. Halving of growth in data set [6] (GI50) required 1.63 ± 0.09 µM. The compound also displayed a GI50 in data set [7] below 2 µM. In addition, the “percentage of apoptotic cells” value in the data set with NCI-H460 cells [8] is 36.6 ± 4.8%.
In turn, `COC(=O)c1sc2cccnc2c1Nc1ccc(OC)cc1[N+](=O)[O-]` [2c, Methyl 3-(4-methoxy-2-nitrophenylamino)thieno[3,2-b]pyridine-2-carboxylate] registered a melting point of 213 to 214 °C.
Consider `COc1cccc2c1C(=O)c1c(O)c3c(c(O)c1C2=O)C[C@@](O)(C(=O)CO)C[C@@H]3O[C@H]1C[C@H](N)[C@H](O)[C@H](C)O1` [Doxorubicin, reference compound], for which the GI50 stood at 0.04 ± 0.01 µM in data set [3], 0.09 ± 0.01 µM in [5] and 0.13 ± 0.01 µM in the data set on A375-C5 (melanoma).
The compound `COC(=O)c1sc2cccnc2c1Nc1ccc(N)cc1` [3a, Methyl 3-(4-aminophenylamino)thieno[3,2-b]pyridine-2-carboxylate] had a GI50 at 48 h in data set [1] above 125 µM. Also, the GI50 in [3] is above 125 µM; in data set [5], above 125 µM; in the data set with A375-C5 (melanoma) it was 112 ± 5 µM; in data set [6], above 125 µM.
`COC(=O)c1sc2cccnc2c1Nc1ccccc1[N+](=O)[O-]` [2b, Methyl 3-(2-nitrophenylamino)thieno[3,2-b]pyridine-2-carboxylate] yielded a melting point of 202 to 204 °C.
The same measure, in the same setting: to `COC(=O)c1sc2cccnc2c1Nc1ccc([N+](=O)[O-])cc1` [2a, Methyl 3-(4-nitrophenylamino)thieno[3,2-b]pyridine-2-carboxylate] belongs 203 to 205 °C.
On to `Cc1c2ccncc2c(C)c2c1[nH]c1ccccc12` [Ellipticine, reference compound], for which, in [1], growth was halved (GI50 at 48 h) at 4 µM. The GI50 in data set [2] (PLP1 non-tumor porcine liver cells, 48h continuous treatment, SRB, mean ± SD, n = 3) came out at 4.19 µM; in data set [6] it was 0.8 ± 0.05 µM.
As to `COC(=O)c1sc2cccnc2c1Nc1ccccc1N` [3b, Methyl 3-(2-aminophenylamino)thieno[3,2-b]pyridine-2-carboxylate], the melting point was 204 to 206 °C. It took 61.3 µM to inhibit growth in data set [1] by half (GI50 at 48 h). The compound further came in with a GI50 in data set [3] of 33.8 ± 1.7 µM. The compound also showed a concentration for 50% growth inhibition (GI50) in [5] of 31.3 ± 2.9 µM. The GI50 in the data set on A375-C5 (melanoma) was found to be 26 ± 2.3 µM. The compound also gave a GI50 in data set [6] of 99.26 ± 0.92 µM.
